Experimental data published in PubChem BioAssay (NCI).
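48-hour exposure; five concentrations; linearly interpolated endpoints. Abbreviation: GI50, concentration required for 50% inhibition of growth. TGI marks complete inhibition of growth.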

Key:
Assay in all cases: growth of human tumour cells (NCI), 48 h
SF-268 CNS = system: SF-268 CNS
K-562 leukemia = system: K-562 leukemia
CAKI-1 renal = system: CAKI-1 renal
HOP-62 NSCLC = system: HOP-62 NSCLC
HCC-2998 colon = system: HCC-2998 colon
NCI-H23 lung = system: NCI-H23 lung
TK-10 renal = system: TK-10 renal
SNB-75 CNS = system: SNB-75 CNS
UACC-62 melanoma = system: UACC-62 melanoma
OVCAR-8 ovarian = system: OVCAR-8 ovarian
MALME-3M melanoma = system: MALME-3M melanoma
786-0 renal = system: 786-0 renal
SK-OV-3 ovarian = system: SK-OV-3 ovarian
MCF7 breast = system: MCF7 breast
CCRF-CEM leukemia = system: CCRF-CEM leukemia
NCI/ADR-RES ovarian = system: NCI/ADR-RES ovarian
SW-620 colon = system: SW-620 colon
DU-145 prostate = system: DU-145 prostate
SK-MEL-2 melanoma = system: SK-MEL-2 melanoma
SNB-19 CNS = system: SNB-19 CNS
NCI-H460 lung = system: NCI-H460 lung
SF-539 CNS = system: SF-539 CNS
RXF 393 renal = system: RXF 393 renal
NCI-H522 lung = system: NCI-H522 lung
RPMI-8226 leukemia = system: RPMI-8226 leukemia
MDA-MB-435 = system: MDA-MB-435
KM12 colon = system: KM12 colon
MOLT-4 leukemia = system: MOLT-4 leukemia
T-47D breast = system: T-47D breast
OVCAR-3 ovarian = system: OVCAR-3 ovarian
A549 NSCLC = system: A549 NSCLC
UACC-257 melanoma = system: UACC-257 melanoma
EKVX NSCLC = system: EKVX NSCLC
SF-295 CNS = system: SF-295 CNS
HOP-92 NSCLC = system: HOP-92 NSCLC
U251 CNS = system: U251 CNS
OVCAR-5 ovarian = system: OVCAR-5 ovarian
HS 578T breast = system: HS 578T breast
M14 melanoma = system: M14 melanoma
BT-549 breast = system: BT-549 breast
HT29 colon = system: HT29 colon
SK-MEL-28 melanoma = system: SK-MEL-28 melanoma
NCI-H226 lung = system: NCI-H226 lung
HCT-15 colon = system: HCT-15 colon
SN12C renal = system: SN12C renal
ACHN renal = system: ACHN renal
PC-3 prostate = system: PC-3 prostate
OVCAR-4 ovarian = system: OVCAR-4 ovarian
A498 renal = system: A498 renal
LOX IMVI melanoma = system: LOX IMVI melanoma
SR leukemia = system: SR leukemia
UO-31 renal = system: UO-31 renal
IGROV1 ovarian = system: IGROV1 ovarian
MDA-MB-231 breast = system: MDA-MB-231 breast
SK-MEL-5 melanoma = system: SK-MEL-5 melanoma

C=C1C(=O)O[C@@H]2[C@@H]3O[C@@H](C[C@@H]13)[C@](C)(O)CC/C=C(\C)CCC[C@H]2C
GI50 (SF-268 CNS): > 100 µM
TGI (SF-268 CNS): > 100 µM
GI50 (K-562 leukemia): 0.416 µM
TGI (K-562 leukemia): 4.01 µM
GI50 (CAKI-1 renal): 0.957 µM
TGI (CAKI-1 renal): 2.59 µM
TGI (HOP-62 NSCLC): 31.7 µM
GI50 (HCC-2998 colon): 0.83 µM
TGI (HCC-2998 colon): 3.88 µM
TGI (NCI-H23 lung): 3.67 µM
GI50 (TK-10 renal): 1.5 µM
TGI (TK-10 renal): 3.26 µM
GI50 (SNB-75 CNS): 14.1 µM
TGI (SNB-75 CNS): > 35.8 µM
GI50 (UACC-62 melanoma): 3.51 µM
TGI (UACC-62 melanoma): 14.1 µM
GI50 (OVCAR-8 ovarian): 1.91 µM
TGI (OVCAR-8 ovarian): 10.4 µM
GI50 (MALME-3M melanoma): 0.18 µM
TGI (MALME-3M melanoma): 2.61 µM
GI50 (786-0 renal): 2.56 µM
TGI (786-0 renal): 9.03 µM
GI50 (SK-OV-3 ovarian): 28.7 µM
TGI (SK-OV-3 ovarian): > 50.4 µM
GI50 (MCF7 breast): > 100 µM
TGI (MCF7 breast): > 100 µM
GI50 (CCRF-CEM leukemia): 0.394 µM
TGI (CCRF-CEM leukemia): 1.91 µM
GI50 (NCI/ADR-RES ovarian): 0.523 µM
TGI (NCI/ADR-RES ovarian): 2.13 µM
GI50 (SW-620 colon): 0.739 µM
TGI (SW-620 colon): 2.31 µM
GI50 (DU-145 prostate): 3.08 µM
TGI (DU-145 prostate): 12.6 µM
GI50 (SK-MEL-2 melanoma): 9.32 µM
TGI (SK-MEL-2 melanoma): 24.2 µM
GI50 (SNB-19 CNS): 29 µM
TGI (SNB-19 CNS): > 49 µM
GI50 (NCI-H460 lung): > 100 µM
TGI (NCI-H460 lung): > 100 µM
GI50 (SF-539 CNS): 13 µM
TGI (SF-539 CNS): 25.7 µM
GI50 (RXF 393 renal): 1.77 µM
GI50 (NCI-H522 lung): 1.65 µM
TGI (NCI-H522 lung): 4.05 µM
GI50 (RPMI-8226 leukemia): 0.258 µM
TGI (RPMI-8226 leukemia): 1.47 µM
GI50 (MDA-MB-435): 1.97 µM
TGI (MDA-MB-435): 6.17 µM
GI50 (KM12 colon): 6.35 µM
TGI (KM12 colon): 18.1 µM
GI50 (MOLT-4 leukemia): 1.39 µM
TGI (MOLT-4 leukemia): 3.37 µM
TGI (T-47D breast): > 22.6 µM
GI50 (OVCAR-3 ovarian): 1.65 µM
TGI (OVCAR-3 ovarian): 3.86 µM
GI50 (A549 NSCLC): 9.21 µM
TGI (A549 NSCLC): 25.2 µM
GI50 (UACC-257 melanoma): 4.9 µM
TGI (UACC-257 melanoma): 14.9 µM
GI50 (EKVX NSCLC): 7.55 µM
TGI (EKVX NSCLC): 20 µM
GI50 (SF-295 CNS): 9.38 µM
TGI (SF-295 CNS): 23.9 µM
GI50 (HOP-92 NSCLC): 0.5 µM
TGI (HOP-92 NSCLC): 2.39 µM
GI50 (U251 CNS): 2.84 µM
TGI (U251 CNS): 12.8 µM
GI50 (OVCAR-5 ovarian): 3.19 µM
TGI (OVCAR-5 ovarian): 12.6 µM
GI50 (HS 578T breast): 5.99 µM
TGI (HS 578T breast): 24.9 µM
GI50 (M14 melanoma): 1.83 µM
TGI (M14 melanoma): 3.75 µM
GI50 (BT-549 breast): 1.84 µM
TGI (BT-549 breast): 4.86 µM
GI50 (HT29 colon): 3.69 µM
TGI (HT29 colon): > 33.9 µM
GI50 (SK-MEL-28 melanoma): 2.36 µM
TGI (SK-MEL-28 melanoma): > 21.8 µM
GI50 (NCI-H226 lung): 2.08 µM
TGI (NCI-H226 lung): 7.4 µM
GI50 (HCT-15 colon): 1.39 µM
TGI (HCT-15 colon): 2.74 µM
GI50 (SN12C renal): 2.06 µM
TGI (SN12C renal): 6.64 µM
GI50 (ACHN renal): 0.926 µM
TGI (ACHN renal): 2.34 µM
GI50 (PC-3 prostate): 1.76 µM
TGI (PC-3 prostate): 5.27 µM
GI50 (OVCAR-4 ovarian): 2.38 µM
TGI (OVCAR-4 ovarian): > 23 µM
GI50 (A498 renal): 20.9 µM
TGI (A498 renal): 35.5 µM
GI50 (LOX IMVI melanoma): 1.51 µM
TGI (LOX IMVI melanoma): 3 µM
GI50 (SR leukemia): 0.395 µM
TGI (SR leukemia): 2.05 µM
GI50 (UO-31 renal): 1.25 µM
TGI (UO-31 renal): 2.79 µM
GI50 (IGROV1 ovarian): 1.06 µM
TGI (IGROV1 ovarian): 4.92 µM
GI50 (MDA-MB-231 breast): 1.51 µM
TGI (MDA-MB-231 breast): 4.14 µM
GI50 (SK-MEL-5 melanoma): 5.57 µM
TGI (SK-MEL-5 melanoma): 13.9 µM
